Experimental data reported in patent US12269815B2, “Dantrolene prodrugs and methods of their use” (EAGLE RESEARCH LABS LIMITED, priority 2017, dated 2025).
Read-outs that look alike come from different tables or passages of the source. One block for each compound: values may come before it.

Experiments:
[1] = Whole-blood pharmacokinetics of Compound 2a in live rats (second analysis); format: in vivo; details: 7.5 mg/kg Compound 2a
[2] = Another pharmacokinetic analysis of Compound 2a in live rats (whole blood and plasma; IV, IM, SC); format: in vivo; details: 7.5 mg/kg Compound 2a
[3] = design: species or system Harlan Sprague Dawley rats; details: rat, in vivo, 7.5 mg/kg
Experimental: Compound 2a is formulated at 8 mg/mL in 5% aqueous mannitol (as a tonicity modifier), at pH 8.0. The formulation is administered IV, SC, or IM to cannulated Harlan Sprague Dawley rats (3 rats/group) from Envigo RMS, Inc. (Indianapolis, Ind.). […] Whole blood (0.1 mL) is collected via a jugular vein catheter at 0, 0.033 (IV only), 0.083, 0.167, 0.33, 0.66, 1, 3, 6, and 9 hours. […] Samples are then placed on wet ice until centrifugation to remove precipitate. […] Samples are quantified based on standard curves prepared with each analyte in the precipitated whole blood matrix. […] Area Under the Curve (AUC) is calculated using the trapezoidal rule by SigmaPlot 12.5 software.

[4] = not given; remark: listed apart in the source
[5] = rat, in vivo; for % Bioavailability of dantrolene: 7.5 mg/kg
[6] = physchem; details: rat, plasma
[7] = cited from earlier work

Compound: O=C1CN(/N=C/c2ccc(-c3ccc([N+](=O)[O-])cc3)o2)C(=O)N1COP(=O)([O-])[O-].[Na+].[Na+] [Compound 2a]
% Bioavailability of dantrolene ([1]; IM): 95.3%
% Bioavailability of dantrolene ([1]; IV): 100%
% Bioavailability of dantrolene ([2]; plasma, IM): 56.7%
% Bioavailability of dantrolene ([2]; plasma, IV): 100%
% Bioavailability of dantrolene ([2]; plasma, SC): 49.7%
% Bioavailability of dantrolene ([2]; whole blood, IM): 80.8%
% Bioavailability of dantrolene ([2]; whole blood, IV): 100%
% Bioavailability of dantrolene ([2]; whole blood, SC): 64.0%
appearance of dantrolene in the blood after administration [3]: rapid appearance of dantrolene in the blood
half-life of prodrug in rat plasma: 1.37 h
conversion to dantrolene in phosphate-buffered saline [4]: no conversion was observed
amount of 2a observed after administration [5]: only trace amounts
% Bioavailability of dantrolene ([5]; im): 77.8%
% Bioavailability of dantrolene ([5]; iv): 100%

half-life at 100 μg/mL [6]: 7.45 h
Compound: O=C(O)CCC(=O)OCc1ccc(NC(=O)OCN2C(=O)CN(/N=C/c3ccc(-c4ccc([N+](=O)[O-])cc4)o3)C2=O)cc1 [Compound 17b]

Compound: Cl.NCC(=O)OCN1C(=O)CN(/N=C/c2ccc(-c3ccc([N+](=O)[O-])cc3)o2)C1=O [Compound 22c]
half-life of prodrug in rat plasma: 0.0533 h
reconversion in phosphate-buffered saline [4]: 85%

Compound: O=C1CN(/N=C/c2ccc(-c3ccc([N+](=O)[O-])cc3)o2)C(O)=N1 [Dantrolene, 1-{[5-(4-nitrophenyl)-2-furyl]methylideneamino}imidazolidine-2,4-dione]
solubility in water [7]: very poorly soluble in water
